Reference: ChEMBL document CHEMBL3132769, “Fragment growing to retain or alter the selectivity of anchored kinase hinge-binding fragments” (Medchemcomm, 2014)

Assays:
[1] = biological target: Aurora kinase B (Homo sapiens) (UniProt Q96GD4); assay: Inhibition of human full length AurB expressed in baculovirus assessed as substrate phosphorylation using fluorescence-labelled peptides as substrate at 95 uM after 90 mins by microfluidic peptide phosphorylation assay
[2] = biological target: T1, Testis-specific serine/threonine-protein kinase 2 (Homo sapiens) (UniProt Q96PF2); details: 0.1 uM
T1 sequence (whole entry): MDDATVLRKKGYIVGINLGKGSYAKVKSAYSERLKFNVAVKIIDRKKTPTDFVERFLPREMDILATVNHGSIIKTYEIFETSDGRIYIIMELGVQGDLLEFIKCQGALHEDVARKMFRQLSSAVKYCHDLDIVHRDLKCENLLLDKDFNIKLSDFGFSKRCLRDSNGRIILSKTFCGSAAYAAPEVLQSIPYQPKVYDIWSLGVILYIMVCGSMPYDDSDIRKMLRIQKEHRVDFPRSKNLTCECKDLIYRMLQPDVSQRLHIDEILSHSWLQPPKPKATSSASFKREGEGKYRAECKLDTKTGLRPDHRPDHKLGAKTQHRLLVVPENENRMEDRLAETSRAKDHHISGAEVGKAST
Description: Inhibition of human full length TSSK2 expressed in baculovirus assessed as substrate phosphorylation using fluorescence-labelled peptides as substrate at 0.1 uM after 90 mins by microfluidic peptide phosphorylation assay

[3] = biological target: Protein kinase C theta type (Homo sapiens) (UniProt Q04759); assay: Inhibition of human truncated PKC theta expressed in baculovirus assessed as substrate phosphorylation using fluorescence-labelled peptides as substrate at […] after 90 mins by microfluidic peptide phosphorylation assay
[4] = biological target: Tyrosine-protein kinase Lyn (Homo sapiens) (UniProt P07948); assay: Inhibition of human full length LYN expressed in baculovirus assessed as substrate phosphorylation using fluorescence-labelled peptides as substrate at 420 uM after 90 mins by microfluidic peptide phosphorylation assay
[5] = biological target: Tyrosine-protein kinase BTK (Homo sapiens) (UniProt Q06187); assay: Inhibition of human full length BTK expressed in baculovirus assessed as substrate phosphorylation using fluorescence-labelled peptides as substrate at 420 uM after 90 mins by microfluidic peptide phosphorylation assay
[6] = biological target: T2, Protein kinase C epsilon type (Homo sapiens) (UniProt Q02156); assay: Inhibition of human truncated PKC epsilon expressed in baculovirus assessed as substrate phosphorylation using fluorescence-labelled peptides as substrate at 0.2 uM after 90 mins by microfluidic peptide phosphorylation assay
T2 sequence (whole entry): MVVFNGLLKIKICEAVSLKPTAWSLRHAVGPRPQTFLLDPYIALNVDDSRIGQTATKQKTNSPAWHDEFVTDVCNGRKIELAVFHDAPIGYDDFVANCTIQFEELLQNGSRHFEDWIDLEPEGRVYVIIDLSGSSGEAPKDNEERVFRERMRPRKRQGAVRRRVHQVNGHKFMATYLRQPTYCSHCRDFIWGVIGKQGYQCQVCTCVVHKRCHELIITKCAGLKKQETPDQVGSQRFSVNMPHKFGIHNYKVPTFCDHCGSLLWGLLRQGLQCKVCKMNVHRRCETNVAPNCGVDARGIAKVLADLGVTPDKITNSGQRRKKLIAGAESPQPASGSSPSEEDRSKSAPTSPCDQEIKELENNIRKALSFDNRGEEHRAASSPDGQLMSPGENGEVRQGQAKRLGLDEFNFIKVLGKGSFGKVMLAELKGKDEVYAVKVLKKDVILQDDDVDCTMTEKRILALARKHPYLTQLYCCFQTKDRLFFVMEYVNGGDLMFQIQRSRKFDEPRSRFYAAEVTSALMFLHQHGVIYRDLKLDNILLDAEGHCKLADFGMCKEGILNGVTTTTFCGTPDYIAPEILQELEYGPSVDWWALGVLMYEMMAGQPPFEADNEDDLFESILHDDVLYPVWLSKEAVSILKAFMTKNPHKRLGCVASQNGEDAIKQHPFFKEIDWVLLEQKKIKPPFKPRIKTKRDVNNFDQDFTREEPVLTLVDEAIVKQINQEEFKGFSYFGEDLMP

[7] = biological target: Ribosomal protein S6 kinase alpha-2 (Homo sapiens) (UniProt Q15349); assay: Inhibition of human full length RSK3 expressed in baculovirus assessed as substrate phosphorylation using fluorescence-labelled peptides as substrate at 0.2 uM after 90 mins by microfluidic peptide phosphorylation assay
[8] = biological target: T3, Serine/threonine-protein kinase BRSK2 (Homo sapiens) (UniProt Q8IWQ3); assay: Inhibition of human truncated BRSK2 expressed in baculovirus assessed as substrate phosphorylation using fluorescence-labelled peptides as substrate at 2 uM after 90 mins by microfluidic peptide phosphorylation assay
T3 sequence (whole entry): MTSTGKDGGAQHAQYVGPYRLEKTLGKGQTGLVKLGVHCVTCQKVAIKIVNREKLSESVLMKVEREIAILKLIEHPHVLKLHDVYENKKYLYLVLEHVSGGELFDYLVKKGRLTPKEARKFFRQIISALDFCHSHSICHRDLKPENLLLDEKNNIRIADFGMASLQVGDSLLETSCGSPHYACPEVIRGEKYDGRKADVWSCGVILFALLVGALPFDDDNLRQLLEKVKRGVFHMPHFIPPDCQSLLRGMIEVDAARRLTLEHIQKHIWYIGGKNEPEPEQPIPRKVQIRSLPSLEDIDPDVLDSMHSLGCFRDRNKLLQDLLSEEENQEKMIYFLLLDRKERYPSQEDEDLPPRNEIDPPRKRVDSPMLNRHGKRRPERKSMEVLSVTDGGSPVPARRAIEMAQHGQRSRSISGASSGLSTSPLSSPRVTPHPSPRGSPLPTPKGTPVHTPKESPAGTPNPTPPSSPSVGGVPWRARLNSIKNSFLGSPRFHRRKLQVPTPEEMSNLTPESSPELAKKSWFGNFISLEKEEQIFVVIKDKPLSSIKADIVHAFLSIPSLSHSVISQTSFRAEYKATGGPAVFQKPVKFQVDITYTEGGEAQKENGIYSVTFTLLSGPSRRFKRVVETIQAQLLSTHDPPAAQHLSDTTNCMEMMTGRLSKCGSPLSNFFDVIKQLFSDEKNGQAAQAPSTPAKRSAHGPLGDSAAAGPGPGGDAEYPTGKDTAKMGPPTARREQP

[9] = biological target: Protein kinase C delta type (Homo sapiens) (UniProt Q05655); assay: Inhibition of human truncated PKC delta expressed in baculovirus assessed as substrate phosphorylation using fluorescence-labelled peptides as substrate at 1000 uM after 90 mins by microfluidic peptide phosphorylation assay
Sequence of Protein kinase C delta type (Homo sapiens) (Q05655 whole entry, looked up, the tested form may be a part): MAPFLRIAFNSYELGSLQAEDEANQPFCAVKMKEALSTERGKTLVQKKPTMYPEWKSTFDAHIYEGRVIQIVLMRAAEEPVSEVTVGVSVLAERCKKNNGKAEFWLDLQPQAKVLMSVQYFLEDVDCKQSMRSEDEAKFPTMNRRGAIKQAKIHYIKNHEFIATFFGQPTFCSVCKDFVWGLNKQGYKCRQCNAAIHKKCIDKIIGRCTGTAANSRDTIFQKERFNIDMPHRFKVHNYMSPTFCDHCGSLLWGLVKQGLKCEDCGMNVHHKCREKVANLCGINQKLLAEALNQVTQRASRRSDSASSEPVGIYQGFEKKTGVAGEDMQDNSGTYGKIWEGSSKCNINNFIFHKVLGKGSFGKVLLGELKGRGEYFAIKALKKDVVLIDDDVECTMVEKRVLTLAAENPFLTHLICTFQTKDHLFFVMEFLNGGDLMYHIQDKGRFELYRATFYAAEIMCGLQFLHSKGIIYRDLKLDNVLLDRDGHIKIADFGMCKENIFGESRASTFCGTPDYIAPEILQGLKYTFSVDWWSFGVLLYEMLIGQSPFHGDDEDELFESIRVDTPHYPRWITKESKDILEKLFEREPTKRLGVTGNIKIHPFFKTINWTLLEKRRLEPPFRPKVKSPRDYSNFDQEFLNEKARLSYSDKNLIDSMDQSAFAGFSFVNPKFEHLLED

Sequence of Tyrosine-protein kinase BTK (Homo sapiens) (Q06187 whole entry, the tested form may be a part): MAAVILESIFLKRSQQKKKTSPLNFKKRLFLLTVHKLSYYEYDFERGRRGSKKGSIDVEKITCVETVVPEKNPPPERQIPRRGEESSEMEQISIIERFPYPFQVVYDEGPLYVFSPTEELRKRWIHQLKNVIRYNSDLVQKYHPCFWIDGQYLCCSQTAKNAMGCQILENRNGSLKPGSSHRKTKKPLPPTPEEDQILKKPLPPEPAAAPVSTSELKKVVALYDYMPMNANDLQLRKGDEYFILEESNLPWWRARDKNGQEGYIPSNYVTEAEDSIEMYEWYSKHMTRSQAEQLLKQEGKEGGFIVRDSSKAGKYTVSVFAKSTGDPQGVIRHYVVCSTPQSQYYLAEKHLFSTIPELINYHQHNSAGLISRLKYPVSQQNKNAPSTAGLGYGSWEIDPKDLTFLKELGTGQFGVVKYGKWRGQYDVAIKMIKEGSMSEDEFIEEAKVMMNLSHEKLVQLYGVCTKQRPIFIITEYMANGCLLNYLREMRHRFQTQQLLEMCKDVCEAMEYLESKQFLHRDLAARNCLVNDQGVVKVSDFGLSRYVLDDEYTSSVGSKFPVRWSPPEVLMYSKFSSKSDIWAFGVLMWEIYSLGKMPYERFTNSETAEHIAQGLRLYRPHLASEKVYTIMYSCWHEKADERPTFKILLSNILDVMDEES
Sequence of Aurora kinase B (Homo sapiens) (Q96GD4 whole entry): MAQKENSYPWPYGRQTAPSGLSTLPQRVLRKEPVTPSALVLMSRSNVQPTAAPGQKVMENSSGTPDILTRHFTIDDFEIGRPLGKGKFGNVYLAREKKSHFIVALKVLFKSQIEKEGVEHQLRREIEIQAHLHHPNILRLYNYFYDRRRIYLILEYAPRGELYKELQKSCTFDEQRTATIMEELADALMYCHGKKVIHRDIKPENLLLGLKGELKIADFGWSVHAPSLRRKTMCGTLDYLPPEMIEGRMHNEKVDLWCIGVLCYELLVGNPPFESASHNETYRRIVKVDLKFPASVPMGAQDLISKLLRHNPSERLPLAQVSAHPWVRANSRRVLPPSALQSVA
Sequence of Tyrosine-protein kinase Lyn (Homo sapiens) (P07948 2-512 limits assumed): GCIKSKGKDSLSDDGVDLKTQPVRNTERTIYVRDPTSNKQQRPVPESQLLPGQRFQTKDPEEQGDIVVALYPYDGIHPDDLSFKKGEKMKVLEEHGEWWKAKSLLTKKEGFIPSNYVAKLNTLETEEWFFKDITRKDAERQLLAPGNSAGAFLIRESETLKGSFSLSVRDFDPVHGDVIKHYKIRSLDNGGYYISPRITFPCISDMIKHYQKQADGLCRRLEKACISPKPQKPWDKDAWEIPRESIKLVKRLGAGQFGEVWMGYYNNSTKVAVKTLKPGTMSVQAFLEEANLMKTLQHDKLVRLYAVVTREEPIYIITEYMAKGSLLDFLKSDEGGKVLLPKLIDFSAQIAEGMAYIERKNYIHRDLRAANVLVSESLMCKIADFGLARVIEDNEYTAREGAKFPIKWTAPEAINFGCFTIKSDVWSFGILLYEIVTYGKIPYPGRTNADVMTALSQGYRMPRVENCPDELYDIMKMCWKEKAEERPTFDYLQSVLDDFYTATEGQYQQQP
Sequence of Protein kinase C theta type (Homo sapiens) (Q04759 whole entry, looked up, the tested form may be a part): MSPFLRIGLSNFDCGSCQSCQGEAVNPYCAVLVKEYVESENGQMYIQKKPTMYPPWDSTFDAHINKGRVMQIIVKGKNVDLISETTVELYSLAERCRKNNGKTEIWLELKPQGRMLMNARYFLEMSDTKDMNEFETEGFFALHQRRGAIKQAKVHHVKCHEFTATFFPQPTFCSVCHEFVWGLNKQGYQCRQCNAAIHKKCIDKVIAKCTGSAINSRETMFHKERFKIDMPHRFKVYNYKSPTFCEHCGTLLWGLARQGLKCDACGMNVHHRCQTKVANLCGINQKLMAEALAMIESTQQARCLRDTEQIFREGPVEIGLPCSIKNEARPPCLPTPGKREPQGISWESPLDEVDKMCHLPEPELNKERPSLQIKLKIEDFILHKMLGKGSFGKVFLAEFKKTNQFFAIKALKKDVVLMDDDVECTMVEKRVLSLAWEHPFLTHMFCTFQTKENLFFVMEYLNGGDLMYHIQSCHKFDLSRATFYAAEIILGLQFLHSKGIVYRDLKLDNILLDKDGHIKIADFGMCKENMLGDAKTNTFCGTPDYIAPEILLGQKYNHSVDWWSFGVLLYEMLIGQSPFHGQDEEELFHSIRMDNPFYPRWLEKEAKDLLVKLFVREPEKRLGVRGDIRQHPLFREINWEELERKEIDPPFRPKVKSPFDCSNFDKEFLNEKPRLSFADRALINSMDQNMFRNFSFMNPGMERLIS
Sequence of Ribosomal protein S6 kinase alpha-2 (Homo sapiens) (Q15349 whole entry, the tested form may be a part): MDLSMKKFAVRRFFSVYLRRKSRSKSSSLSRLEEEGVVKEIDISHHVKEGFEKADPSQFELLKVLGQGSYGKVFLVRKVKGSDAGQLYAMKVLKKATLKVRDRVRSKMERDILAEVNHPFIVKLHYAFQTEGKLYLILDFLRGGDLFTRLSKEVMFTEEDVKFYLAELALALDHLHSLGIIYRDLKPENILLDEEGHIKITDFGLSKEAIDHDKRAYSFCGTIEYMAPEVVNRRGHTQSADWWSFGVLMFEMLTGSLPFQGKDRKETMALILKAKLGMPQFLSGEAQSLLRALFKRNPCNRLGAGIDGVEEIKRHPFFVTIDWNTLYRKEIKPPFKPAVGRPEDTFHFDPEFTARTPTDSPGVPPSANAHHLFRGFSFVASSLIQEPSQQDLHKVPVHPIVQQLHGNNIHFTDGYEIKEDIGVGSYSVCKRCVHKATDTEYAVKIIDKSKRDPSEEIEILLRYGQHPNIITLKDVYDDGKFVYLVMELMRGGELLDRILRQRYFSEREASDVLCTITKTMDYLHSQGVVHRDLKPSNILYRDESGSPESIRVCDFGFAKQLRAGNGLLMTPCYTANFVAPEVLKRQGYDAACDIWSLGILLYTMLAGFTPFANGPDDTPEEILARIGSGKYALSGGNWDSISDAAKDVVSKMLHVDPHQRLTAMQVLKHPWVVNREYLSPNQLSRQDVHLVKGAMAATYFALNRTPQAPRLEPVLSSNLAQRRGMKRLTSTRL

NCCc1ccc(-c2ncnc3[nH]cnc23)cc1
inhibition [1]: 97%

C[C@H](CN(C)C)Oc1nc(Nc2cc3cccc(Cl)c3cn2)cnc1C#N
inhibition [2]: 0%

COC(=O)c1cnc(Nc2cnc(C#N)cn2)cc1NCC1CCNCC1
inhibition [3]: 4%

c1nc(N2CCOCC2)c2nc[nH]c2n1
inhibition [4]: 68%
inhibition [5]: 55%

Clc1ccc(C2(c3ccc(-c4ncnc5[nH]cnc45)cc3)CCNCC2)cc1
inhibition [6]: 46.5%
inhibition [7]: 40%

NC1CCN(c2ncnc3[nH]ccc23)CC1
inhibition [8]: 2.5%

c1cnc2[nH]ccc2c1
inhibition [9]: 45.5%
